Assay results: paper PMC5441580, “GPR40 partial agonist MK-2305 lower fasting glucose in the Goto Kakizaki rat via suppression of endogenous glucose production” (PLoS ONE, 2017)
Values joined by “and” are separate entries in the source; they are usually repeats but may differ in a detail not shown here. Equal values may be shown once.

What was measured:
Rat PPARδ = molecular target: T1, Rat PPARδ (Rattus norvegicus, UniProt Q62879); experiment: cell-based nuclear receptor profiling (Indigo Biosciences), PPARδ
T1 sequence (Q62879 1-440): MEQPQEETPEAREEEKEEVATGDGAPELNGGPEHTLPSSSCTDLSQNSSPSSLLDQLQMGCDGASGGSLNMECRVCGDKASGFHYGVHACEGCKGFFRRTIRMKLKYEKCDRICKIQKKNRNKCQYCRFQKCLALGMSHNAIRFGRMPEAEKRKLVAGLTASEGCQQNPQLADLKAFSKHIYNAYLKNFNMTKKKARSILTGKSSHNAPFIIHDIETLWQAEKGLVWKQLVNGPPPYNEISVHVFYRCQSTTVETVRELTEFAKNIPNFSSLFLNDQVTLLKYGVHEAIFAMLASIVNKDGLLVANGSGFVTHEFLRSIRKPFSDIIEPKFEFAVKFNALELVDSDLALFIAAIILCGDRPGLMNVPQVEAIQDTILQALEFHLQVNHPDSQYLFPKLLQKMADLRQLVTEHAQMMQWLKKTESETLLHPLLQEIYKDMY
Procedure: Rat PPARα, PPARδ, and PPARγ activities were determined by Indigo Biosciences (State College, PA) cell-based nuclear receptor profiling service.

[1] = protein binding assay in mouse plasma; assay type: in vitro ADME; details: read-out: free fraction
GK rats = experiment: GK rat chronic efficacy, compound in feed for 20 days; assay type: in vivo; details: Day 7, ~6 hrs after food removal; 10mpk; chronic study; individual animals; 10 mg/kg
human GPR41 (FFAR3) = molecular target: T2, human GPR41 (FFAR3) (Homo sapiens, UniProt O14843); experiment: cAMP (LANCE) functional assay, CHO cells expressing human GPR41; assay type: cell-based
T2 construct: expressed in transfected cells
T2 sequence (O14843 1-346): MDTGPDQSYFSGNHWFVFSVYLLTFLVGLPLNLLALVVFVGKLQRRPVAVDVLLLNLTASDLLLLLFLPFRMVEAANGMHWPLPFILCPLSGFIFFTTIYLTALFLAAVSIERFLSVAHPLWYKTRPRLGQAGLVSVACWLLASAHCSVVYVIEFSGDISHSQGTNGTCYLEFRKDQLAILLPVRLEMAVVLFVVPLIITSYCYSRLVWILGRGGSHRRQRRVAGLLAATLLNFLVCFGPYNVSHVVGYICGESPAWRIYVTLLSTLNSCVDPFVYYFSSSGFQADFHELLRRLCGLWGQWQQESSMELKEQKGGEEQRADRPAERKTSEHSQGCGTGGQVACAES
Procedure: CHO cells stably expressing human GPR41 or human GPR43 were harvested with non-enzymatic cell dissociation buffer and re-suspended in LANCE stimulation buffer (prepared as described by PE) at 0.25 million cells per ml (3.3 million cells per ml for GPR43) and 6 μl was then plated into each well of a 384-well Culturplate. Compounds were serially diluted in DMSO and then diluted further into stimulation buffer containing 2 μM forskolin (Sigma) at 2-times final concentration in the assay. 6 μl of the diluted compounds were then added to the assay plate and the plate incubated for 60 mins at room temperature. After the incubation, 12 μl of detection reagent (prepared as described by PE) was added to each well and the plates incubated one additional hour at room temperature. After the final incubation, the plates were read in a Perkin Elmer Envision reader with a method designed for Time-resolved fluorescence (TRF) assays (340 nm excitation, dual emission 615 and 655 nm). For each assay, a cAMP standard curve plate was also included. All fluorescent readings (using the 655/615 nm ratio) were converted to cAMP concentration using the cAMP standard curve and the percent activity at each concentration of test compound was determined using 0% activation (basal activity) determined in those wells containing DMSO alone, while 100% activity was determined in wells containing a concentration of agonist know to maximally activate the receptor.

O=C1NC(=O)C(C2CCOc3cc(Oc4ccc(C(F)(F)F)cc4Cl)ccc32)S1 (stereo not shown) [MK-2305]
EC50 (Rat PPARδ): > 10 µM | % Activation (Rat PPARδ; @ 10 μM): -0.1 @ 10 μM % and -0.08% | % Effect (Rat PPARδ; Dose 0.309 nM): -0.01% | % Effect (Rat PPARδ; Dose 0.981 nM): 0.01% | % Effect (Rat PPARδ; Dose 3.11 nM): -0.001% | % Effect (Rat PPARδ; Dose 9.85 nM): -0.01% | % Effect (Rat PPARδ; Dose 31.2 nM): -0.01% | % Effect (Rat PPARδ; Dose 99 nM): 0.01% | % Effect (Rat PPARδ; Dose 314 nM): 0.00% | % Effect (Rat PPARδ; Dose 995 nM): -0.02% | % Effect (Rat PPARδ; Dose 3155 nM): -0.04% | % Effect (Rat PPARδ; Dose 10000 nM): -0.08% | fraction unbound [1]: 0.026 | Fasted blood glucose (GK rats): 134 mg/dl (2×) and 126 mg/dl and 92 mg/dl and 108 mg/dl and 125 mg/dl and 107 mg/dl (2×) and 150 mg/dl | % Activation (human GPR41 (FFAR3); @ 25 μM): 85 @ 25 μM % and 85% | % Effect (human GPR41 (FFAR3); Dose 1.267 nM): -32% | % Effect (human GPR41 (FFAR3); Dose 3.801 nM): 0.634% | % Effect (human GPR41 (FFAR3); Dose 34.208 nM): -2.75% | % Effect (human GPR41 (FFAR3); Dose 102.624 nM): -4.7% | % Effect (human GPR41 (FFAR3); Dose 307.872 nM): -36% | % Effect (human GPR41 (FFAR3); Dose 923.617 nM): -18% | % Effect (human GPR41 (FFAR3); Dose 2770.85 nM): -0.143% | % Effect (human GPR41 (FFAR3); Dose 8312.55 nM): 50% | % Effect (human GPR41 (FFAR3); Dose 24938 nM): 85% | EC50 (human GPR41 (FFAR3); cAMP, CHO cells expressing human GPR41): 12.7 µM
